Measured values published in US12391679B2, “Benzamide-substituted bicyclic imidazo- and pyrazolo-fused -pyridine, -pyrimide, and -pyridazine compounds for treatment of inflammatory diseases” (ONCO3R Therapeutics BV, priority 2019, dated 2025).

Legend:
SIK3 [1] = target: T1, SIK3 (Homo sapiens, UniProt Q9Y2K2); experiment: 33P radioactive kinase assay, SIK3; assay type: biochemical; settings: 33P radioactive assay; AMARA 7 μM; 15 μM ATP; 80 min; average IC50
T1 construct: purchased SignalChem S12-11G-100
T1 sequence (Q9Y2K2 59-365 limits assumed): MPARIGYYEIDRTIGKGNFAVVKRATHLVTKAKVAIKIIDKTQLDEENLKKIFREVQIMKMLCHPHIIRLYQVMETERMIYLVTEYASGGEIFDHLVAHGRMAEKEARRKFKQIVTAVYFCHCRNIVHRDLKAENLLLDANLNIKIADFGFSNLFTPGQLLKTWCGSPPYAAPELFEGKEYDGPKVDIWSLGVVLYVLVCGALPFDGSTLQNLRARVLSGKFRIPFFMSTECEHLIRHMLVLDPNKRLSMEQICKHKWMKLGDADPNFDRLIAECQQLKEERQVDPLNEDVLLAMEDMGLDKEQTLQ
Procedure: (§1) The principle of the ^33P radioactive kinase assay consists in measuring the incorporated ^33P into the substrate AMARA peptide when phosphorylated by SIK1, SIK2 or SIK3 using [^33P]-g-ATP, which correlates with kinase activity.
(§2) The test compounds are prepared as a serial dilution of 10 point dose responses with 1/5 dilution steps in 100% DMSO starting from 2 mM highest concentration, diluted 1/20 in water and 5 μL is transferred to the assay plates (Greiner, Cat #651201).
(§3) 1% DMSO and 10 μM staurosporine final concentrations are used as negative and positive controls.
(§4) 11 μL of enzyme-substrate mixture is added on the assay plates. The reactions are started by adding 9 μL ATP mixture, consisting of non-labeled and ^33P-labeled ATP, on the assay plates.
(§5) The reactions are stopped by adding 25 μL phosphoric acid (150 mM) to the reactions.
(§6) The completely terminated kinase reactions are transferred using a harvester on pre-wetted UniFilter-96 plates (UniFilter-96 GF/B, PerkinElmer Inc., Cat #6005177).
(§7) After harvesting the kinase reactions, the filter plates are washed 6 times with phosphoric acid (75 mM). The back of the UniFilter-96 plates are sealed and 40 μL MicroScint-20 (PerkinElmer Inc., Cat #6013621) is added to each well. The top of the plates are sealed with TopSeal-A. Read-out is performed with a TopCount instrument (PerkinElmer Inc.).
(§8) Raw data are generated following the read-out performed on the TopCount, plotted to generate dose response curves to calculate percentage inhibition (PIN) and average IC50 for each SIK homologue which are reported in the table below.

SIK1 [2] = target: T2, SIK1 (Homo sapiens, UniProt P57059); experiment: 33P radioactive kinase assay, SIK1; assay type: biochemical
T2 construct: purchased Carna Biosciences 02-131
T2 sequence (P57059 whole entry): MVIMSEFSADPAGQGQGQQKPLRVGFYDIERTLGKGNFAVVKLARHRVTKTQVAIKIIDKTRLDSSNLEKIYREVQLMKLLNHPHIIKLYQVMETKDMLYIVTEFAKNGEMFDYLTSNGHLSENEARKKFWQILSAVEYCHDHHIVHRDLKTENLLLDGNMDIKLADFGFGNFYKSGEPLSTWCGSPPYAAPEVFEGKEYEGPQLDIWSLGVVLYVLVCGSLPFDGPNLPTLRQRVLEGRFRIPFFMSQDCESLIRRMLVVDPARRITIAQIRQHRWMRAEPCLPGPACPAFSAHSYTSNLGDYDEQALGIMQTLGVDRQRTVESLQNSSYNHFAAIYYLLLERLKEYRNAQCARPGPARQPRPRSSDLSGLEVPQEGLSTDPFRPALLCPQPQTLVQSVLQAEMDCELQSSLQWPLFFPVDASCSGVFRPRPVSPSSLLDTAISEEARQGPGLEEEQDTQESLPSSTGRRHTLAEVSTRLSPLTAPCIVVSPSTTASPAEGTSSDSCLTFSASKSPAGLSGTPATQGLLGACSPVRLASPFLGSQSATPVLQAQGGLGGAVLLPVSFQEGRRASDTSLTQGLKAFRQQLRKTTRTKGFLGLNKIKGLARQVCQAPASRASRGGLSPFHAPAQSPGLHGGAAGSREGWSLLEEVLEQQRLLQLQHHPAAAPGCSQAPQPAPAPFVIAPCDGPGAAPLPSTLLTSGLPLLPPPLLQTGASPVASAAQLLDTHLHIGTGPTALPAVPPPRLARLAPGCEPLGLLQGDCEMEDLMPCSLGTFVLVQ
Procedure: as §1, §2, §3, §4, §5, §6, §7, §8

SIK2 [3] = target: T3, SIK2 (Homo sapiens, UniProt Q9H0K1); experiment: 33P radioactive kinase assay, SIK2; assay type: biochemical; further: AMARA 5 µM, 10 µM ATP
T3 construct: purchased ThermoFisher Scientific PV4792
T3 sequence (Q9H0K1 whole entry): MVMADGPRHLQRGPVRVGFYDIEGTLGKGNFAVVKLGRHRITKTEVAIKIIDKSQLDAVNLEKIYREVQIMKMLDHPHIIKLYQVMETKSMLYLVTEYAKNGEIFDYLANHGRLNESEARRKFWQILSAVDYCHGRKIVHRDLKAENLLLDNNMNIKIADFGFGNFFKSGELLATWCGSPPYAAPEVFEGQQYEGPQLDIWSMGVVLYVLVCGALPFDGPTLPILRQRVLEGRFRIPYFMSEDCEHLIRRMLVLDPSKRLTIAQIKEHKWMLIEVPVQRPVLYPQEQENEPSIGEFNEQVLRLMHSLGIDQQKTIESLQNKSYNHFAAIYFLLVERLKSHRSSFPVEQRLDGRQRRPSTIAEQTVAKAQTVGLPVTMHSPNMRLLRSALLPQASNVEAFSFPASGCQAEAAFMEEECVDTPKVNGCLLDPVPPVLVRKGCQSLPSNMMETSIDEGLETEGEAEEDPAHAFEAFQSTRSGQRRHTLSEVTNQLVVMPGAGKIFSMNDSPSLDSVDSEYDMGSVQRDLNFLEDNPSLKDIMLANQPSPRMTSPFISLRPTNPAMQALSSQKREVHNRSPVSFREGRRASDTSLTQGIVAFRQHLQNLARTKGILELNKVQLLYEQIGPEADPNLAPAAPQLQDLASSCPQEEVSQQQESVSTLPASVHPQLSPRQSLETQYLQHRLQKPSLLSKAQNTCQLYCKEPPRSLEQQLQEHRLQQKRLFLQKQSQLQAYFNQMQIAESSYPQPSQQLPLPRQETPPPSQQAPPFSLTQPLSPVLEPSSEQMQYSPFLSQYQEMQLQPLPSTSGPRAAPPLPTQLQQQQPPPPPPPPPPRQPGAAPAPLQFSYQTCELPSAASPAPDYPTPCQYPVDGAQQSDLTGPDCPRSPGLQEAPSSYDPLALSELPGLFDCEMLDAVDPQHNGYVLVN
Procedure: as §1, §2, §3, §4, §5, §6, §7, §8

[4] = tested on: LPS triggered IL-10 secretion in monocytes; experiment: Monocytes assay: LPS-triggered IL-10 (ELISA); assay type: cell-based, human; settings: Homo sapiens, Monocyte, LPS-triggered IL-10 induction, median maximal fold change vs LPS only, read-out: IL-10 FCmax median
Procedure: This assay evaluates illustrative compounds of the invention for their inhibition of LPS-induced TNFα and LPS triggered IL-10 secretion in monocytes.
PBMCs are isolated from human blood samples (buffycoats). The buffy coat is aseptically transferred into a 50 mL Falcon tube, and diluted 1/2 in PBS. Falcon tubes are filled with 20 mL Lymphoprep™, on top of which 25 mL of the buffy coat is carefully added, tubes are centrifuged for 35 min at 400 g in temperature controlled centrifuge, without brake, at 25° C. PBMCs are aspirated from the white interface layer between sample and Lymphoprep™. PBMCs are washed five times in PBS.
PBMCs are centrifuged at 300×g for 10 min and resuspended at a density of 1.0*10^7 cells/80 μL Miltenyi buffer (PBS, pH 7.4, 1% FBS, 2 mM EDTA).
Starting from this point of the protocol all steps are performed on ice. 20 μL of CD14+ micro-beads are added per 1.0*10^7 cells, the tube is mixed and incubated for 15 min in the fridge at 4° C. Cell suspension volume is adjusted to total volume of 100 mL using Miltenyi buffer, mixed gently and subsequently centrifuged for 10 min at 300×g. Supernatant is discarded and cell pellet is resuspended in 12 mL of Miltenyi buffer.
Four LS columns are placed in the MACS Separator (magnet) from Miltenyi Biotec, and are prewet by rinsing with 3 mL of MACS buffer per column. Three mL of cell suspension is added onto the column (max 1*10^8 of labelled cells/column), and columns are subsequently washed 3 times with 3 mL of Miltenyi buffer.
The columns are removed from the magnets, and 5 mL of Miltenyi buffer are added to the column to flush out the CD14+ fraction by pushing the plunger into the column. The flushed fractions are collected in a fresh 50 mL Falcon and volume is adjusted to 30 mL using Miltenyi buffer, cells are centrifuged for 10 min at 300×g. The obtained cell pellet is resuspended in 10 mL RPMI w/o FBS, and cell density is determined using a hematologic analyser (Sysmex XS-500i).
A compound dilution plate is made in 100% DMSO by 3-fold dilution of 10 mM stock solution. An intermediate dilution plate (10× final concentration) is made by diluting the compound dilution plate 50-fold in RPMI medium.
10 μL of the 10× final concentration compound is added to the cells and incubated for 1 h at 37° C. before addition of trigger. No trigger conditions/trigger conditions are spiked with equal final DMSO concentrations of 0.2% DMSO. 10 μL of 10×LPS (final conc. 200 ng/mL) solution are added to all wells except for the ‘no trigger wells’ where 10 μL medium is added. Supernatant is collected after 4 h of LPS triggering.
A Lumitrac 600 Greiner 384-well plate is coated with 40 μL of capture antibody (final concentration of 1 μg/mL in 1×PBS) and stored overnight at 4° C. The next day the plate is washed three times with PBST (PBS+0.05% Tween20) and once with PBS followed by the addition of 100 μL of blocking buffer (1% BSA-5% Sucrose) and plates are sealed and incubated for at least 4 h at RT. After washing the plate once with PBST and once with PBS, 40 μL of standard or sample are added (IL-10 standard curve is prepared using a 1/2 serial dilution starting from 2000 pg/mL; dilutions are made in dilution buffer (PBS+1% BSA)). […] Plates are washed twice with PBST, and once with PBS, whereafter 35 μL of Strep-HRP conjugate (0.5 μg/mL final concentration diluted in dilution buffer) is added. Plates are incubated in the dark, at RT for at least 45 min but no longer than 1 h. Plates are washed twice with PBST, and once with PBS. Thereafter, 50 μL of luminol substrate is added to each well (prepared according to manufacturer's instructions), and incubated for 5 min at RT protected from light.
To quantify these increases, fold changes (FC) compared to ‘LPS only’ are calculated for each concentration tested and the maximal FC is calculated (IL-10 FCmax): […]

SIK1 [5] = target: T2, SIK1; experiment: ADP-Glo kinase assay, SIK1; assay type: biochemical
Summary of the method: (§9)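 ADP-Glo format, luminescent. Room-temperature kinase reaction lasting 120 min, followed by ATP removal (40 min) and ADP detection (30 min); 10 μM staurosporine serves as full-inhibition control, 1% DMSO as uninhibited control.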

[6] = tested on: LPS-induced TNFα in monocytes; experiment: Monocytes assay: LPS-triggered TNFα (ELISA); assay type: cell-based, human; settings: Homo sapiens, Monocyte, LPS-triggered TNFα inhibition
Summary of the method: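 TNFα secretion was triggered with 200 ng/mL LPS for 4 h in human blood CD14+ monocytes after 1 h compound pretreatment at 37 °C, with 0.2% final DMSO. Supernatants were analysed by streptavidin-HRP/luminol ELISA, and percentage inhibition at each concentration was derived relative to control wells.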

SIK2 [7] = target: T3, SIK2; experiment: ADP-Glo kinase assay, SIK2; assay type: biochemical
Summary of the method: as §9

SIK3 [8] = target: T1, SIK3; experiment: ADP-Glo kinase assay, SIK3; assay type: biochemical
Summary of the method: as §9

[9] = ADP-Glo, AMARA 45 μM, 5 μM ATP, 120 min, average IC50

Row | SMILES | IC50 (SIK3 [1]) | IC50 (SIK1 [2]) | IC50 (SIK2 [3]) | IC50 (SIK1 [5]) | EC50 [6] | IC50 (SIK2 [7]) | IC50 (SIK3 [8]) | IC50 (SIK1 [5]; [9]) | IC50 (SIK2 [7]; [9]) | IC50 (SIK3 [8]; [9]) | maximal fold induction [4]
1 | COc1cc(-c2cnc3cc(C4(O)COC4)ccn23)cc(OC(F)F)c1C(=O)NC1CC1 [Cpd 177, N-cyclopropyl-2-(difluoromethoxy)-4-[7-(3-hydroxyoxetan-3-yl)imidazo[1,2-a]pyridin-3-yl]-6-methoxy-benzamide] |  |  |  | > 500 nM | 100 to 1000 nM | > 500 nM | 10 to 100 nM |  |  |  | < 1.5
2 | COc1cc(-c2cnc3cc(C(C)(O)Cn4ccnc4)ccn23)cc(OC(F)F)c1C(=O)NC1CC1 (centres unmarked) [Cpd 181, N-cyclopropyl-2-(difluoromethoxy)-4-[7-(1-hydroxy-2-imidazol-1-yl-1-methyl-ethyl)imidazo[1,2-a]pyridin-3-yl]-6-methoxy-benzamide] |  |  |  | > 500 nM | 1000 to 5000 nM | > 500 nM | 10 to 100 nM |  |  |  | < 1.5
3 | COc1cc(-c2cnc3cc(C4CCOCC4)c(OCCO)cn23)cc(OC(F)F)c1C(=O)NC1CC1 [Cpd 183, N-cyclopropyl-2-(difluoromethoxy)-4-[6-(2-hydroxyethoxy)-7-tetrahydropyran-4-yl-imidazo[1,2-a]pyridin-3-yl]-6-methoxy-benzamide] |  |  |  | > 500 nM | 1000 to 5000 nM | 100 to 500 nM | 10 to 100 nM |  |  |  | < 1.5
4 | COc1cc(-c2cnc3cc(C(C)(O)CN4CC(F)(F)C4)ccn23)cc(OC(F)F)c1C(=O)NC1CC1 (centres unmarked) [Cpd 191, N-cyclopropyl-4-[7-[2-(3,3-difluoroazetidin-1-yl)-1-hydroxy-1-methyl-ethyl]imidazo[1,2-a]pyridin-3-yl]-2-(difluoromethoxy)-6-methoxy-benzamide] |  |  |  | > 500 nM | 1000 to 5000 nM | > 500 nM | 10 to 100 nM |  |  |  | < 1.5
5 | COc1cn2c(-c3cc(OC)c(C(=O)NC4CC4)c(OC(F)F)c3)cnc2cc1C(C)(C)C#N [Cpd 200, 4-[7-(1-cyano-1-methyl-ethyl)-6-methoxy-imidazo[1,2-a]pyridin-3-yl]-N-cyclopropyl-2-(difluoromethoxy)-6-methoxy-benzamide] |  |  |  | > 500 nM | 100 to 1000 nM | 100 to 500 nM | 10 to 100 nM |  |  |  | < 1.5
6 | [2H]C([2H])([2H])C(C#N)(c1ccn2c(-c3cc(OC)c(C(=O)NC4CC4)c(OC(F)F)c3)cnc2c1)C([2H])([2H])[2H] [Cpd 230, 4-[7-[1-cyano-2,2,2-trideuterio-1-(trideuteriomethyl)ethyl]imidazo[1,2-a]pyridin-3-yl]-N-cyclopropyl-2-(difluoromethoxy)-6-methoxy-benzamide] |  |  |  | > 500 nM | 100 to 1000 nM | 100 to 500 nM | 0.01 to 10 nM |  |  |  | < 1.5
7 | COc1cc(-c2cnn3cc(C4COCCO4)ccc23)cc(OC(F)F)c1C(=O)N[C@@H]1C[C@@H]1F (stereo partly drawn) [Cpd 240, 2-(difluoromethoxy)-4-[6-(1,4-dioxan-2-yl)pyrazolo[1,5-a]pyridin-3-yl]-N-[(1R,2S)-2-fluorocyclopropyl]-6-methoxy-benzamide] |  |  |  |  | 100 to 1000 nM |  |  | 100 to 500 nM | 10 to 100 nM | 0.01 to 10 nM | 1.5 to 4.5

Continued, in another order:

Row | IC50 (SIK3 [1]) | IC50 (SIK1 [2]) | IC50 (SIK2 [3]) | IC50 (SIK1 [5]) | EC50 [6] | IC50 (SIK2 [7]) | IC50 (SIK3 [8]) | IC50 (SIK1 [5]; [9]) | IC50 (SIK2 [7]; [9]) | IC50 (SIK3 [8]; [9]) | SMILES | maximal fold induction [4]
8 | > 500 nM | > 500 nM | > 500 nM |  |  |  |  |  |  |  | COc1cc(-n2cnc3cc(C4CCN(C)CC4)ccc32)cc(OC)c1C(=O)NCC(F)(F)F [Cpd 1, 2,6-dimethoxy-4-[5-(1-methyl-4-piperidyl)benzimidazol-1-yl]-N-(2,2,2-trifluoroethyl)benzamide] | 
9 | 100 to 500 nM | > 500 nM | 100 to 500 nM |  |  |  |  |  |  |  | COc1cc(-n2cnc3cc(C4CCN(C(=O)OC(C)(C)C)CC4)ccc32)cc(OC)c1C(=O)NCC(F)(F)F [Cpd 2, tert-butyl 4-[1-[3,5-dimethoxy-4-(2,2,2-trifluoroethylcarbamoyl)phenyl]benzimidazol-5-yl]piperidine-1-carboxylate] | 
10 | 100 to 500 nM | > 500 nM | 100 to 500 nM |  |  |  |  |  |  |  | COc1cc(-n2cnc3cc(C4CCNCC4)ccc32)cc(OC)c1C(=O)NCC(F)(F)F [Cpd 3, 2,6-dimethoxy-4-[5-(4-piperidyl)benzimidazol-1-yl]-N-(2,2,2-trifluoroethyl)benzamide] | 
11 |  |  |  | 100 to 500 nM | 100 to 1000 nM | 100 to 500 nM | 10 to 100 nM |  |  |  | COc1cc(-c2cnc3cc(C(C)(C)F)ccn23)cc(OC(F)F)c1C(=O)NC1CC1 [Cpd 133, N-cyclopropyl-2-(difluoromethoxy)-4-[7-(1-fluoro-1-methyl-ethyl)imidazo[1,2-a]pyridin-3-yl]-6-methoxy-benzamide] | 1.5 to 4.5
12 |  |  |  | > 500 nM | 100 to 1000 nM | > 500 nM | 10 to 100 nM |  |  |  | COCC(C)(O)c1ccn2c(-c3cc(OC)c(C(=O)NC4CC4)c(OC(F)F)c3)cnc2c1 (centres unmarked) [Cpd 182, N-cyclopropyl-2-(difluoromethoxy)-4-[7-(1-hydroxy-2-methoxy-1-methyl-ethyl)imidazo[1,2-a]pyridin-3-yl]-6-methoxy-benzamide] | < 1.5
13 |  |  |  | > 500 nM | 100 to 1000 nM | > 500 nM | 10 to 100 nM |  |  |  | COCC(C)(C)c1ccc2c(-c3cc(OC)c(C(=O)NC4CC4)c(OC(F)F)c3)cnn2c1 [Cpd 238, N-cyclopropyl-2-(difluoromethoxy)-6-methoxy-4-[6-(2-methoxy-1,1-dimethyl-ethyl)pyrazolo[1,5-a]pyridin-3-yl]benzamide] | < 1.5
